In paper PMC12121777 (PLOS One, 2025) one finds MIC data, which are given here for ten molecules.

Assay [1] concerns Mycobacterium kansasii 6509/96. The assay is described as follows: MIC, micro method in Šula's semisynthetic medium, M. kansasii clinical isolate. Format: cell-based. Particulars: read-out: MIC M. kansasii 6509/96.
Another assay deals with Mtb 331/88 (i.e., H37Rv). In words: MIC, micro method in Šula's semisynthetic medium, drug-susceptible Mtb. The assay is classed as cell-based, Mycobacterium tuberculosis. Particulars: Mycobacterium tuberculosis, H37RV.
Assay [2] relates to Mycobacterium avium 330/88. The assay is described as follows: MIC, micro method in Šula's semisynthetic medium, M. avium. Format: cell-based.
The mark [3] stands for this setting: 330/88, 336 h, read-out: MIC M. avium 330/88.
The mark [4] stands for this setting: 330/88, 504 h, read-out: MIC M. avium 330/88.

Molecules are shown by their SMILES. In brackets after ≈: the same amount, converted by molar mass. Like-named read-outs stand apart in the source and are kept apart here. Some results are limits rather than exact numbers.

Turning to `CNC(=O)NNC(=O)c1cc([N+](=O)[O-])cc([N+](=O)[O-])c1` [Compound 4a, 2-(3,5-Dinitrobenzoyl)-N-methylhydrazine-1-carboxamide], the MIC in assay [1] (6509/96, 168 h) is 250 µM (≈ 70.8 µg/mL); in assay [1] (6509/96, 336 h) it was 500 µM (≈ 142 µg/mL); in assay [1] (6509/96, 504 h) it was 500 µM (≈ 142 µg/mL); against Mtb 331/88 (i.e., H37Rv) (336 h, 14 days) it was over 32 µM; against Mtb 331/88 (i.e., H37Rv) (504 h, 21 days), over 32 µM; in assay [2] (setting [3]), 1000 µM (≈ 283 µg/mL). Further, in assay [2] (setting [4]), the MIC turned out to be 1000 µM (≈ 283 µg/mL).

As to `CCNC(=O)NNC(=O)c1cc([N+](=O)[O-])cc([N+](=O)[O-])c1` [Compound 4b, 2-(3,5-Dinitrobenzoyl)-N-ethylhydrazine-1-carboxamide], the MIC in assay [1] (6509/96, 168 h) is 64 µM (≈ 19 µg/mL); in assay [1] (6509/96, 336 h) it was 125 µM (≈ 37.2 µg/mL); in assay [1] (6509/96, 504 h), 125 µM (≈ 37.2 µg/mL); against Mtb 331/88 (i.e., H37Rv) (336 h, 14 days), 32 µM (≈ 9.51 µg/mL); against Mtb 331/88 (i.e., H37Rv) (504 h, 21 days) it was over 32 µM; in assay [2] (setting [3]) it was 1000 µM (≈ 297 µg/mL). For the same molecule, the MIC in assay [2] (setting [4]) stood at 1000 µM (≈ 297 µg/mL).

Take `CCCNC(=O)NNC(=O)c1cc([N+](=O)[O-])cc([N+](=O)[O-])c1` [Compound 4c, 2-(3,5-Dinitrobenzoyl)-N-propylhydrazine-1-carboxamide]: the MIC came out at 8 µM (≈ 2.49 µg/mL) in assay [1] (6509/96, 168 h); 16 µM (≈ 4.98 µg/mL) in assay [1] (6509/96, 336 h); 16 µM (≈ 4.98 µg/mL) in assay [1] (6509/96, 504 h); 16 µM (≈ 4.98 µg/mL) against Mtb 331/88 (i.e., H37Rv) (336 h, 14 days); 16 µM (≈ 4.98 µg/mL) with Mtb 331/88 (i.e., H37Rv) (504 h, 21 days); 1000 µM (≈ 311 µg/mL) in assay [2] (setting [3]). In assay [2] (setting [4]), the MIC is 1000 µM (≈ 311 µg/mL).

On to `CCCCCCCCCCCCCCCCNC(=O)NNC(=O)c1cc([N+](=O)[O-])cc([N+](=O)[O-])c1` [Compound 4p, 2-(3,5-Dinitrobenzoyl)-N-hexadecylhydrazine-1-carboxamide], for which the MIC in assay [1] (6509/96, 168 h) is 8 µM (≈ 3.95 µg/mL); in assay [1] (6509/96, 336 h), 16 µM (≈ 7.9 µg/mL); in assay [1] (6509/96, 504 h) it was 16 µM (≈ 7.9 µg/mL); in the assay with Mtb 331/88 (i.e., H37Rv) (336 h, 14 days), 8 µM (≈ 3.95 µg/mL); against Mtb 331/88 (i.e., H37Rv) (504 h, 21 days), 16 µM (≈ 7.9 µg/mL); in assay [2] (setting [3]), over 1000 µM. For the same molecule, the MIC in assay [2] (setting [4]) was over 1000 µM.

Turning to `CCCCCCCCCCCCCCCCCNC(=O)NNC(=O)c1cc([N+](=O)[O-])cc([N+](=O)[O-])c1` [Compound 4q, 2-(3,5-Dinitrobenzoyl)-N-heptadecylhydrazine-1-carboxamide], the MIC was 8 µM (≈ 4.06 µg/mL) in assay [1] (6509/96, 168 h); 16 µM (≈ 8.12 µg/mL) in assay [1] (6509/96, 336 h); 16 µM (≈ 8.12 µg/mL) in assay [1] (6509/96, 504 h); 8 µM (≈ 4.06 µg/mL) against Mtb 331/88 (i.e., H37Rv) (336 h, 14 days); 16 µM (≈ 8.12 µg/mL) in the assay with Mtb 331/88 (i.e., H37Rv) (504 h, 21 days); over 500 µM in assay [2] (setting [3]). For the same molecule, the MIC in assay [2] (setting [4]) is over 500 µM.

Consider `CCCCCCCCCCCCCCCCCCNC(=O)NNC(=O)c1cc([N+](=O)[O-])cc([N+](=O)[O-])c1` [Compound 4r, 2-(3,5-Dinitrobenzoyl)-N-octadecylhydrazine-1-carboxamide], for which the MIC in assay [1] (6509/96, 168 h) was 8 µM (≈ 4.17 µg/mL); in assay [1] (6509/96, 336 h), 16 µM (≈ 8.35 µg/mL); in assay [1] (6509/96, 504 h) it was 16 µM (≈ 8.35 µg/mL); in the assay on Mtb 331/88 (i.e., H37Rv) (336 h, 14 days), 8 µM (≈ 4.17 µg/mL); in the assay on Mtb 331/88 (i.e., H37Rv) (504 h, 21 days) it was 16 µM (≈ 8.35 µg/mL); in assay [2] (setting [3]) it was over 1000 µM. The MIC in assay [2] (setting [4]) is over 1000 µM.

For `CNc1nnc(-c2cc([N+](=O)[O-])cc([N+](=O)[O-])c2)o1` [Compound 5a, 5-(3,5-Dinitrophenyl)-N-methyl-1,3,4-oxadiazol-2-amine], the MIC in assay [1] (6509/96, 168 h) is 16 µM (≈ 4.24 µg/mL); in assay [1] (6509/96, 336 h) it was 32 µM (≈ 8.49 µg/mL); in assay [1] (6509/96, 504 h), 32 µM (≈ 8.49 µg/mL); with Mtb 331/88 (i.e., H37Rv) (336 h, 14 days), 8 µM (≈ 2.12 µg/mL); against Mtb 331/88 (i.e., H37Rv) (504 h, 21 days) it was 16 µM (≈ 4.24 µg/mL); in assay [2] (setting [3]) it was 500 µM (≈ 133 µg/mL). Further, the MIC in assay [2] (setting [4]) came out at 500 µM (≈ 133 µg/mL).

In the case of `CCNc1nnc(-c2cc([N+](=O)[O-])cc([N+](=O)[O-])c2)o1` [Compound 5b, 5-(3,5-Dinitrophenyl)-N-ethyl-1,3,4-oxadiazol-2-amine], the MIC in assay [1] (6509/96, 168 h) is 16 µM (≈ 4.47 µg/mL); in assay [1] (6509/96, 336 h), 32 µM (≈ 8.93 µg/mL); in assay [1] (6509/96, 504 h), 32 µM (≈ 8.93 µg/mL); in the assay with Mtb 331/88 (i.e., H37Rv) (336 h, 14 days), 8 µM (≈ 2.23 µg/mL); in the assay with Mtb 331/88 (i.e., H37Rv) (504 h, 21 days) it was 16 µM (≈ 4.47 µg/mL); in assay [2] (setting [3]), over 1000 µM. The MIC in assay [2] (setting [4]) was over 1000 µM; in assay [2] (330/88, read-out: MIC M. avium) it was over 1000 µM.

Consider `CCCNc1nnc(-c2cc([N+](=O)[O-])cc([N+](=O)[O-])c2)o1` [Compound 5c, 5-(3,5-Dinitrophenyl)-N-propyl-1,3,4-oxadiazol-2-amine], for which the MIC is 4 µM (≈ 1.17 µg/mL) in assay [1] (6509/96, 168 h); 8 µM (≈ 2.35 µg/mL) in assay [1] (6509/96, 336 h); 16 µM (≈ 4.69 µg/mL) in assay [1] (6509/96, 504 h); 4 µM (≈ 1.17 µg/mL) in the assay on Mtb 331/88 (i.e., H37Rv) (336 h, 14 days); 4 µM (≈ 1.17 µg/mL) in the assay on Mtb 331/88 (i.e., H37Rv) (504 h, 21 days); over 500 µM in assay [2] (setting [3]). For the same molecule, the MIC in assay [2] (setting [4]) is over 500 µM.

As for `CCCCCCCCCCCCCCCCNc1nnc(-c2cc([N+](=O)[O-])cc([N+](=O)[O-])c2)o1` [Compound 5p, 5-(3,5-Dinitrophenyl)-N-hexadecyl-1,3,4-oxadiazol-2-amine], the MIC came out at 2 µM (≈ 0.951 µg/mL) in assay [1] (6509/96, 168 h); 4 µM (≈ 1.9 µg/mL) in assay [1] (6509/96, 336 h); 8 µM (≈ 3.8 µg/mL) in assay [1] (6509/96, 504 h); 8 µM (≈ 3.8 µg/mL) against Mtb 331/88 (i.e., H37Rv) (336 h, 14 days); 8 µM (≈ 3.8 µg/mL) in the assay with Mtb 331/88 (i.e., H37Rv) (504 h, 21 days); 8 µM (≈ 3.8 µg/mL) in assay [2] (setting [3]). The MIC in assay [2] (setting [4]) turned out to be 16 µM (≈ 7.61 µg/mL).
